Molecules are shown by their SMILES. Read-outs that look alike come from different tables or passages of the source.

The term Kd denotes a measure of binding affinity in units of concentration.

The target in experiment [1] is T1, CLC2 CBS1-2 (WT) (Homo sapiens, UniProt P51788).
T1 construct: DNAs encoding residues 582-840 of CLC2; made in house; host or cells: E. coli BL21 (DE3)
Put plainly: Filter binding assay, GST-CBS domain fusion. Conditions: single-site model.
Description: (§8) ATP or [^35S]SAM were incubated with GST-CBS domain fusions (1 ìM for WT, up to 20 μM for some mutants) for 10 min at 25° C. in a 20 il total volume in TBS. Reactions were stopped by spotting 10 ìl onto a Millipore MF Filter Membrane disc and rapidly washing under high vacuum with 1 ml of ice-cold TBS. Radioactivity was determined on the filters by scintillation counting. Non-specific binding (which was trivial) was determined by performing the assay with GST as a control, and was subtracted. […] Data were fitted to the binding models given in the text, using GraphPad Prism 3.

Experiment [2] deals with T2, recombinant á1â1γ3 heterotrimer (Homo sapiens, UniProt Q9UGI9).
T2 construct: expressed in transfected cells; host or cells: CCL13 cells
T2 sequence (Q9UGI9 whole entry): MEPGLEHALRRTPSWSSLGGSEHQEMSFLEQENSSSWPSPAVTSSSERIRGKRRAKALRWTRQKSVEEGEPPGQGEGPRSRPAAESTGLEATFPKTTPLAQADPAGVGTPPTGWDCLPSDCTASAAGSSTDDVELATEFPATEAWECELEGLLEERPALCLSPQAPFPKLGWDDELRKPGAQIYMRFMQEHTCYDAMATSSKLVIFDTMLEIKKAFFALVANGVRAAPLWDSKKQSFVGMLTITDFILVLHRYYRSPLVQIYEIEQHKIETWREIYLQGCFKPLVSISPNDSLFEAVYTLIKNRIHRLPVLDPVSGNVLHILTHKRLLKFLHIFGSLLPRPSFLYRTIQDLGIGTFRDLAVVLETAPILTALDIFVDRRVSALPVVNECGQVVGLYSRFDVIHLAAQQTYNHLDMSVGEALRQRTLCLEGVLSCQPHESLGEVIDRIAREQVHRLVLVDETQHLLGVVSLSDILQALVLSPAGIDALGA
T2 sequence (P54645 whole entry partner): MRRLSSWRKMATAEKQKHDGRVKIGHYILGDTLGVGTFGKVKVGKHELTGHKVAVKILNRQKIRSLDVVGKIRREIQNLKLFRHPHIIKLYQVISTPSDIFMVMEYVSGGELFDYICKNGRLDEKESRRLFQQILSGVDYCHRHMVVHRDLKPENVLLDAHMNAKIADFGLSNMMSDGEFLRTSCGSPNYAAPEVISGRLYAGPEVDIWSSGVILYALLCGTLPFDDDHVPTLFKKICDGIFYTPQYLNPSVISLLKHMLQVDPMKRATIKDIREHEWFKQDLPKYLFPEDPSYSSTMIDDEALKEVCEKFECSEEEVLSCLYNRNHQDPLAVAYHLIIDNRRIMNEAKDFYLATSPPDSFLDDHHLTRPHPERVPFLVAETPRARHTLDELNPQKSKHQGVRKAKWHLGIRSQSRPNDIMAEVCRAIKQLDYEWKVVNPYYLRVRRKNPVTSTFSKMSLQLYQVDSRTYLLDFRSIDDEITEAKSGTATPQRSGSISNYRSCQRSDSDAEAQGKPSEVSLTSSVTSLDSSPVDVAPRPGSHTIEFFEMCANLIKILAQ
T2 sequence (P80386 2-270 partner limits assumed): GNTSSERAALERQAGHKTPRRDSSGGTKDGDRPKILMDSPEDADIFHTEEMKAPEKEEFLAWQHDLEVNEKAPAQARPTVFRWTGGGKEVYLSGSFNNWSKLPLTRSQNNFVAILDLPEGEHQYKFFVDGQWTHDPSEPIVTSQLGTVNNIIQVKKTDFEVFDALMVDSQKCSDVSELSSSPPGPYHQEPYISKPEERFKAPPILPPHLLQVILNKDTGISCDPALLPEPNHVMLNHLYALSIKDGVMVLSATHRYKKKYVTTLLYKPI
Put plainly: AMPK heterotrimer kinase assay, activation by AMP. The format is biochemical. From the text: (§1) Plasmids expressing myc-tagged á1, â1 and γ1, γ2 (with or without WPWS mutations) or γ3 were expressed in CCL13 cells and the recombinant complexes immunoprecipitated using anti-myc antibodies.
(§2) PCDNA plasmids (14,25,32) encoding á1, â1 and γ1, γ2 or γ3 were expressed in CCL13 cells (25), subject to “rapid lysis”, immunoprecipitated using anti-myc antibody, and assayed as described previously (33). “Slow lysis” of CCL13 cells was as described by Stein et al (34).

The target of experiment [3] is T3, recombinant á1â1γ1 heterotrimer (Rattus norvegicus, UniProt P80385).
T3 construct: expressed in transfected cells; host or cells: CCL13 cells
T3 sequence (P80385 whole entry): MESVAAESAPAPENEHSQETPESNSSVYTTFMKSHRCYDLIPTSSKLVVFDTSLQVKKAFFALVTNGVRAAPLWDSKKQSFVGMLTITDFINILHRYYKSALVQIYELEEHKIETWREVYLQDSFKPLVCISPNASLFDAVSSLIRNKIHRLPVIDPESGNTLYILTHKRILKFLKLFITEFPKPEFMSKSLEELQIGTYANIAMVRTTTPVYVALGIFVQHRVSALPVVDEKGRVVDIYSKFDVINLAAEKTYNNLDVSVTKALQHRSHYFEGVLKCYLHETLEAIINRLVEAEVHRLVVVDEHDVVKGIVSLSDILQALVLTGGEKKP
T3 sequence (P54645 whole entry partner): as the sequence (P54645 whole entry partner) above
T3 sequence (P80386 whole entry partner): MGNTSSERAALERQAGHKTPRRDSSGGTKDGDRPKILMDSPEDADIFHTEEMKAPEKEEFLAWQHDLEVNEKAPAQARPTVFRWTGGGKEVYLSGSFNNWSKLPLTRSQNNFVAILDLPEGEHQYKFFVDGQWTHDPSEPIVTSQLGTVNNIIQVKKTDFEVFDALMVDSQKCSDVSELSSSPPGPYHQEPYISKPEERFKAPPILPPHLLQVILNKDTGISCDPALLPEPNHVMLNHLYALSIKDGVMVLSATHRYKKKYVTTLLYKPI
Kind of experiment: AMPK heterotrimer kinase assay, activation by AMP. The format is biochemical.
Text: as §1, §2

Experiment [4] deals with T4, CLC2 CBS domain pair G826D (Homo sapiens, UniProt P51788, G828D).
T4 construct: DNAs encoding residues 582-840 of CLC2; made in house; host or cells: E. coli BL21 (DE3)
T4 sequence (P51788 582-840 G828D): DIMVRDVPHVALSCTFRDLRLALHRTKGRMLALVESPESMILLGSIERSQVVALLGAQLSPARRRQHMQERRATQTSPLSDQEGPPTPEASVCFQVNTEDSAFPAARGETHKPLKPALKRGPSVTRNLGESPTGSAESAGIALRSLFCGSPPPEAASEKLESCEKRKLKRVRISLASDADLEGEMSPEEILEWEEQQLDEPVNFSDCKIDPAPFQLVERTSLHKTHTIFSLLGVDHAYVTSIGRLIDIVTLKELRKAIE
Kind of experiment: Filter binding assay, GST-CBS domain fusion. The settings on record: single-site model. From the text:
(§3) DNA encoding the CBS domain pair from the chloride channel CLC2 was also cloned and expressed. […] The G715E mutation, in the linker between the first and second CBS domains of CLC2, is associated with idiopathic generalized epilepsy (29), while the G826D mutation is in an equivalent position in the second CBS domain to the G859D mutation in CLC1 that is associated with congenital myotonia (28).
(§4) For IMPDH2, DNAs encoding residues 112-232 or the full-length protein (1-514) were amplified using human liver cDNA (Clontech) as template, and cloned into pHAT20 (Clontech) using 5′-AgeI and 3′-KpnI sites added to the primers. For the other constructs, DNAs encoding residues 582-840 of CLC2, or 416-551 of cystathionine â-synthase, were amplified using human liver cDNA as template, and cloned into pGEX-KG as above using 5′-BamHI and 3′-XhoI sites added to the primers. All mutations were created using the Stratagene QuikChange Site-directed Mutagenesis system.
(§5) Various concentrations of [^14C]-AMP, [γ^32P] […] Reactions were stopped by spotting 10 ìl onto a Millipore MF Filter Membrane disc and rapidly washing under high vacuum with 1 ml of ice-cold TBS. Radioactivity was determined on the filters by scintillation counting. Non-specific binding (which was trivial) was determined by performing the assay with GST as a control, and was subtracted. […]

In experiment [5] the target is T5, CLC2 CBS1-2 (G715E) (Homo sapiens, UniProt P51788, G715E).
T5 construct: DNAs encoding residues 582-840 of CLC2; made in house; host or cells: E. coli BL21 (DE3)
T5 sequence (P51788 582-840 G715E): as the sequence (P51788 582-840 G828D) above, with G134E, D247G counted along it
Kind of experiment: Filter binding assay, GST-CBS domain fusion. The settings on record: single-site model.
Text: as §3, §4, §5

Experiment [6] addresses T6, recombinant á1â1γ2 heterotrimer (H383R) (Homo sapiens, UniProt Q9UGJ0, H383R).
T6 construct: expressed in transfected cells; host or cells: CCL13 cells
Kind of experiment: AMPK heterotrimer kinase assay, activation by AMP. It is filed as biochemical. Conditions: slow lysis; estimate somewhat less accurate; read-out: A0.5.
Text: as §1
(§6) For this reason, the estimates of A0.5 for the H383R and T400N mutants are somewhat less accurate than the others, while no value could be obtained for the R531 G mutant. […] With some mutants, the maximal activation also appeared to be affected.
as §2

In experiment [7] the target is T7, recombinant á1â1γ2 heterotrimer (R302Q) (Homo sapiens, UniProt Q9UGJ0, R302Q).
T7 construct: expressed in transfected cells; host or cells: CCL13 cells
T7 sequence (Q9UGJ0 whole entry R302Q): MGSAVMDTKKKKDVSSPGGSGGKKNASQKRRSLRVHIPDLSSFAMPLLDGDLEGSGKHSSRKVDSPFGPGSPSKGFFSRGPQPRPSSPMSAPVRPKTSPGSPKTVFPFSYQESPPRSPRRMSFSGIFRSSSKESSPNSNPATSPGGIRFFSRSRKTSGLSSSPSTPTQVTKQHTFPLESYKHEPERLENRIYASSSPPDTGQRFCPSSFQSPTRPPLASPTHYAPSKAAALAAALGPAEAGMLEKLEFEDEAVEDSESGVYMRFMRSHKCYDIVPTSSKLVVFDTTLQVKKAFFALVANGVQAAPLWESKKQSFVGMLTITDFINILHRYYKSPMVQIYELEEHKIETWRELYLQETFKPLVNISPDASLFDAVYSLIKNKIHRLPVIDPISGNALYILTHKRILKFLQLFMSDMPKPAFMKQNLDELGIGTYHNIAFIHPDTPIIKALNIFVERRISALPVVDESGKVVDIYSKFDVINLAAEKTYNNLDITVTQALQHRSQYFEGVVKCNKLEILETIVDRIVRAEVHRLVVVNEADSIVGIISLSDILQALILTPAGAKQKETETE
T7 sequence (P54645 whole entry partner): as the sequence (P54645 whole entry partner) above
T7 sequence (P80386 whole entry partner): as the sequence (P80386 whole entry partner) above
Put plainly: AMPK heterotrimer kinase assay, activation by AMP. The format is biochemical.
Text: as §1, §6, §2

Experiment [8] concerns the target recombinant á1â1γ2 heterotrimer (Lins) (Homo sapiens, UniProt Q9UGJ0, INS350L). Kind of experiment: AMPK heterotrimer kinase assay, activation by AMP. It is filed as biochemical. The settings on record: immunoprecipitated from CCL13 cells, slow lysis; read-out: A0.5.
Text: as §1, §6, §2

For experiment [9], the target named is T8, IMPDH2 CBS domain pair (wild type) (Homo sapiens, UniProt P12268).
T8 construct: For IMPDH2, DNAs encoding residues 112-232 or the full-length protein (1-514) were amplified; His tag (vector pHAT20); made in house; host or cells: E. coli
Kind of experiment: Displacement of bound ATP. It is filed as binding.
Description: as §8

Experiment [10] has as its target T9, IMPDH2 CBS1-2 (R224P) (Homo sapiens, UniProt P12268, R224P).
T9 construct: DNAs encoding residues 112-232 or the full-length protein (1-514) were amplified; His tag (pHAT20 vector); made in house; host or cells: E. coli
Put plainly: Filter binding assay, isolated CBS domain pair. Conditions: single-site model.
Text: To examine whether binding of adenine nucleotides is a general function for CBS domains, or is specific to the γ subunits of AMPK, IMP dehydrogenase (IMPDH) was also studied. Retinitis pigmentosa can be caused by an R224P mutation in the second CBS domain of the IMPDH1 isoform (27). However, the IMPDH2 isoform is 84% identical in amino acid sequence with IMPDH1, and the arginine mutated in retinitis pigmentosa is conserved. Because the IMPDH2 isoform is ubiquitously expressed and a suitable cDNA to use as a template for PCR was more readily available, DNA encoding the single pair of CBS domains from human IMPDH2 was cloned, an R224P mutation was created and expressed both the wild type and the mutant as His-tagged proteins in E. coli.
as §4
The IMPDH2 constructs were His-tagged and were purified on chelating-Sepharose (Pharmacia) charged with 50 mM CoCl2 according to manufacturer's instructions.
Various concentrations of [^14C]-AMP, [γ^32P] […] Reactions were stopped by spotting 10 ìl onto a Millipore MF Filter Membrane disc and rapidly washing under high vacuum with 1 ml of ice-cold TBS. Radioactivity was determined on the filters by scintillation counting. Non-specific binding (which was trivial) was determined by performing the assay with GST as a control, and was subtracted. […] Data were fitted to the binding models given in the text, using GraphPad Prism 3. […]

Experiment [11] concerns the target T10, full-length IMPDH2 (R224P) (Homo sapiens, UniProt P12268, R224P).
T10 construct: DNAs encoding residues 112-232 or the full-length protein (1-514) were amplified using human liver cDNA; His tag (vector pHAT20); made in house; host or cells: E. coli
Kind of experiment: Enzymatic assay of IMPDH2. Conditions: highest concentration used 2 mM. It is filed as biochemical. As for the experimental part: (§7) IMPDH2 was assayed by following the increase in absorbance at 340 nm due to formation of NADH in a BMG Fluostar Optima plate reader at 30° C. in plate mode. The assay buffer contained 50 mM Tris/HCl, 100 mM KCl, 1 mM DTT, 3 mM EDTA, and 5 mM MgCl. […] The total volume was 200 μl and the reaction started by addition of IMP (or NAD^+ where [IMP] was the variable).

The target in experiment [12] is T11, full-length IMPDH2 (wild type) (Homo sapiens, UniProt P12268).
T11 construct: DNAs encoding residues 112-232 or the full-length protein (1-514) were amplified using human liver cDNA; His tag (vector pHAT20); made in house; host or cells: E. coli
Kind of experiment: Enzymatic assay of IMPDH2. The format is biochemical. As for the experimental part: as §7

The mark [13] stands for this setting: immunoprecipitated from CCL13 cells, slow lysis, read-out: A0.5.

T1 sequence (P51788 582-840): as the sequence (P51788 582-840 G828D) above, with D247G counted along it
recombinant á1â1γ2 heterotrimer (Lins), sequence (Q9UGJ0 with tags, fused parts or gaps INS350L): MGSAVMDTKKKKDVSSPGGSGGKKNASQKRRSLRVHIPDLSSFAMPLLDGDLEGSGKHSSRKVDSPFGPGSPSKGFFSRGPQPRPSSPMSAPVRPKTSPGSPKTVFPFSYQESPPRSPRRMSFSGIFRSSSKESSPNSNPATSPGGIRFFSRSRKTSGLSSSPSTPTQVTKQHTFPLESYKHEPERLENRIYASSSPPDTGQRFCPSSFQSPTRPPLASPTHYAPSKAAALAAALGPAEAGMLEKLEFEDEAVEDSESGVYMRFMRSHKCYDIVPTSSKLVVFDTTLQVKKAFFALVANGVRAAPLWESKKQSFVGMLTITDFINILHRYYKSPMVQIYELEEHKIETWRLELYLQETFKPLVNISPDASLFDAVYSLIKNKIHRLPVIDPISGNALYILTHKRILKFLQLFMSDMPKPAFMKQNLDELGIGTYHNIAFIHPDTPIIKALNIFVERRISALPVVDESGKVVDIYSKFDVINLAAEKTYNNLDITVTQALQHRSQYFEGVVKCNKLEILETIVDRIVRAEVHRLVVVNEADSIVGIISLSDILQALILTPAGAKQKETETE
T6 sequence (Q9UGJ0 whole entry H383R): as the sequence (Q9UGJ0 whole entry R302Q) above, with Q302R, H383R counted along it
T6 sequence (P54645 whole entry partner): as the sequence (P54645 whole entry partner) above
T6 sequence (P80386 whole entry partner): as the sequence (P80386 whole entry partner) above

Consider `Nc1ncnc2c1ncn2[C@@H]1O[C@H](COP(=O)(O)O)[C@@H](O)[C@H]1O` [AMP, adenosine monophosphate], for which the equilibrium dissociation constant (Kd) in experiment [1] turned out to be 1060 ± 80 µM; in experiment [4] it was 14300 ± 550 µM; in experiment [5], 10400 ± 1300 µM; in experiment [9] it was 440 µM. Moreover, the “stimulation by AMP” value in experiment [2] turned out to be 1.5 fold; in experiment [3], 3.3 fold; in [7], 3 fold. The EC50 in experiment [2] (approximate only, read-out: A0.5) was 2 ± 2 µM; in experiment [3] (setting [13]), 13 ± 2 µM; in experiment [6], 51 ± 40 µM; in experiment [7] (setting [13]), 23 ± 6 µM; in experiment [8] it was 9 ± 4 µM.
In turn, `Nc1ncnc2c1ncn2[C@@H]1O[C@H](COP(=O)(O)OP(=O)(O)OP(=O)(O)O)[C@@H](O)[C@H]1O` [ATP] gave a Kd in experiment [10] of 450 ± 36 µM. Further, the effect on activity result in [11] is given as “no effect”. For the same compound, in [12], the “Hill coefficient of activation” value is 1.3±0.1 and the “stimulation of IMPDH activity (Vmax)” value is reported as more than 4 fold. Moreover, in experiment [12] (read-out: A0.5 for ATP activation, as printed in discussion), the EC50 is 440 µM. Moreover, in experiment [12] (read-out: half-maximal effect), the EC50 was 440 ± 50 µM.

The values are drawn from patent US20050202511A1, “AMP-activated protein kinase (AMPK) inhibitor screening assay” (priority 2002, published 2005).
